Assay results: article PMC3908613 (Bioscience Reports, 2014)

How the values were obtained:
[1] = system: BMDC; experiment: Cytokine production by LPS-stimulated BMDC (ELISA); type: cell-based, C57BL/6 mice; details: LPS 50 ng/ml, 18 h; for production of TNFα, IL6 and IL10: in the presence of both PD184352 (2 μM) and BIRB0796 (0.1 μM)
Procedure: DCs were generated from the bone marrow or the spleen of C57BL/6 mice as previously described. Briefly, bone marrow cells were cultured for 7 days at 37°C, 5% (v/v) CO2 in complete RPMI medium supplemented with 10 ng/ml recombinant granulocyte-macrophage colony-stimulating factor (GM-CSF; Peprotech). Spleen cells were cultured for 14 days at 37°C, 5% CO2 in complete RPMI containing 10 ng/ml GM-CSF and 1 ng/ml TGFβ (transforming growth factor-β; R&D Systems). NIH3T3 cells (European Cell Culture Collection) were cultured in DMEM (Dulbecco's modified Eagle's medium) supplemented with glutamine, penicillin, streptomycin and 10% (v/v) calf serum (Invitrogen). […] The amounts of TNFα (tumour necrosis factor α), IL6 (interleukin 6) and IL10 in the supernatant were measured using ELISA kits specific for each cytokine (TNFα, IL6; Peprotech, IL10; R&D Systems).

[2] = target: T1, Erk1/2 (Mus musculus, UniProt P63085); experiment: Desthiobiotin-ATP probe capture on streptavidin beads, Western blot; type: binding, C57BL/6 mice; details: 10 μM inhibitor, DC lysate
T1 construct: recovered on streptavidin beads following desthiobiotin-ATP labelling of DC lysates including Rsk2, Erk1/2 and p38; endogenous in cells; host or cells: mouse spleen-derived dendritic cells (SDC), lysate
T1 sequence (P63085 2-358): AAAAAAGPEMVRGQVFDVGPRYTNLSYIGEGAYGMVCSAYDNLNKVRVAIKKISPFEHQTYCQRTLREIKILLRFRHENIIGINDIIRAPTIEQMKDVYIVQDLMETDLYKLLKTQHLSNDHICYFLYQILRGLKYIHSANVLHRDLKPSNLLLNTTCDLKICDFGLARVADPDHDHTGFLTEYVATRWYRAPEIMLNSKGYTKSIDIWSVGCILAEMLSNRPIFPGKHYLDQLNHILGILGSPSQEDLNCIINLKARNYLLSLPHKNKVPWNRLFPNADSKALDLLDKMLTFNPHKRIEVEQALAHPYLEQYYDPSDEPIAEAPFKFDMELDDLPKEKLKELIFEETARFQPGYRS
Procedure: (§1) SDC were cultured for at least 14 days in RPMI (without arginine and lysine, custom-made by Biosera) containing 10% dialysed FCS (Hyclone) supplemented with 84 mg/l of L-arginine (Sigma) and 40 mg/l L-lysine (Sigma) for the 'light' medium or 84 mg/l of […] or ^13C10 and 40 mg/l […] (Cambridge Isotope Laboratory) for the 'heavy' medium. Equal numbers (2×10^7) of 'light' or 'heavy' labelled SDCs were incubated in RPMI containing 0.5% FCS for 3 h in 15 cm dishes. The cells were lysed in the lysis buffer provided in the kit (Pierce). […] Labelling with the desthiobiotin ATP probe, and precipitation with streptavidin beads were performed according to the manufacturer's instructions (Pierce kinase enrichment kit or ActivXTM).

[3] = system: p38; experiment: as above; type: binding, C57BL/6 mice; details: 10 μM inhibitor, DC lysate
Procedure: as §1

[4] = system: BMDC; experiment: FITC-dextran uptake (macropinocytosis) by BMDC; type: cell-based, C57BL/6 mice; details: LPS 50 ng/ml, FITC-dextran 1 mg/ml, increasing concentrations
Procedure: DCs were generated from the bone marrow or the spleen of C57BL/6 mice as previously described. Briefly, bone marrow cells were cultured for 7 days at 37°C, 5% (v/v) CO2 in complete RPMI medium supplemented with 10 ng/ml recombinant granulocyte–macrophage colony-stimulating factor (GM-CSF; Peprotech). Spleen cells were cultured for 14 days at 37°C, 5% CO2 in complete RPMI containing 10 ng/ml GM-CSF and 1 ng/ml TGFβ (transforming growth factor-β; R&D Systems). NIH3T3 cells (European Cell Culture Collection) were cultured in DMEM (Dulbecco's modified Eagle's medium) supplemented with glutamine, penicillin, streptomycin and 10% (v/v) calf serum (Invitrogen).
FITC-dextran uptake was measured as described. […] In some experiments, cells were pre-treated with 1 μM Akt-i (Merck) for 30 min. Cells were left unstimulated or were stimulated with 50 ng/ml LPS for 20 min at 37°C followed by the addition of 1 mg/ml FITC dextran (Invitrogen) for 10 min at 37°C. Cells were washed four times at 4°C in PBS supplemented with 2% (v/v) FCS (foetal calf serum) and then stained with APC (allophycocyanin)-labelled anti-CD11c antibody (BD biosciences). FITC dextran uptake was measured on an FACS Calibur (BD biosciences).

[5] = system: panel of more than 200 kinases; set-up: method as in PMID 22056746; details: cited from earlier work
[6] = system: BMDC; experiment: Immunoblot of phosphorylated signalling proteins in stimulated BMDC; type: cell-based, C57BL/6 mice; details: 30 min
Procedure: BMDC (1.5×10^6 cells) were incubated in 6-well plates in RPMI supplemented with 0.3% FCS for 5 h at 37°C. […] NIH3T3 cells (2×10^4) were plated in 6-well plates for 48 h at 37°C. The cells were deprived of serum for 8 h in DMEM supplemented with 2 mg/ml BSA (Sigma) and then stimulated with 100 ng/ml EGF (epidermal growth factor; Peprotech) for 5 min at 37°C.
Cells were washed in cold PBS, lysed on ice for 10 min in lysis buffer (1% Triton X-100 containing 50 mM Tris–HCl (pH 7.5), 150 mM NaCl, 1 mM EGTA, 1 mM EDTA, 10 mM NaF, 1 mM sodium orthovanadate and 5 mM sodium pyrophosphate and protease inhibitors (Roche)) and centrifuged for 10 min at 20000 g at 4°C.
BMDC (5×10^6 cells) were stimulated as described above. Lysates were pre-cleared with protein G Sepharose beads (Roche) for 30 min at 4°C. Paxillin was immunoprecipitated with 2 μg of anti-paxillin (Millipore) or with anti-IgG antibodies (Santa Cruz Biotechnology) for 1 h at 4°C and then incubated with 15 μl protein G Sepharose beads for 1 h at 4°C. Beads were washed four times with lysis buffer and paxillin was eluted with NuPage sample buffer (Invitrogen). The immunoprecipitated proteins were separated by electrophoresis on a 10% (w/v) NuPage gel and transferred onto a nitrocellulose membrane. The membrane was probed with anti-phospho Ser250-paxilin (kind gift of Luc Sabourin, McMaster University, Canada) or anti-paxillin antibodies.

[7] = system: DC; experiment: Actin cytoskeleton organisation in DC (confocal microscopy); type: cell-based, C57BL/6 mice; details: 4 μM D1870 or 2 μM BIX, 1h30 at 37°C
Procedure: 2 μMBIXfor1h30at37◦ C. Cells were ﬁxed in 4 % (v/v) paraformalde-hyde for 15 min, permeabilized with 0.1 % Triton for 5 min and stained with phalloidin-Alexa 555 (Invitrogen) and anti-vinculin antibody (Sigma) followed by goat anti-mouse Alexa 488 antibody (invitrogen). Cells were analysed on a Zeiss700 confocal microscope. V inculin (green) and phal-loidin (red). Error bar 10 μm. Images are representative of three inde- […]
© 2014 The Author(s) This is an Open Access ar ticle distributed under the terms of the Creative Commons Attribution Licence (CC-BY) (http://creativecommons.org/licenses/by/3.0/)c which permits unrestricted use, distribution and reproduction in any medium, provided the original work is properly cited.
(1 picture or pasted object on this page, not shown here)

[8] = system: RSK; set-up: method as in PMID 22056746; details: read-out: in vitro IC50 RSK; cited from earlier work
[9] = target: T2, PLK1 (Mus musculus, UniProt Q07832); experiment: Desthiobiotin-ATP probe capture on streptavidin beads, Western blot; type: binding, C57BL/6 mice; details: 10 μM inhibitor, DC lysate
T2 construct: endogenous in cells; host or cells: mouse spleen-derived dendritic cells (SDC), lysate
T2 sequence (Q07832 whole entry): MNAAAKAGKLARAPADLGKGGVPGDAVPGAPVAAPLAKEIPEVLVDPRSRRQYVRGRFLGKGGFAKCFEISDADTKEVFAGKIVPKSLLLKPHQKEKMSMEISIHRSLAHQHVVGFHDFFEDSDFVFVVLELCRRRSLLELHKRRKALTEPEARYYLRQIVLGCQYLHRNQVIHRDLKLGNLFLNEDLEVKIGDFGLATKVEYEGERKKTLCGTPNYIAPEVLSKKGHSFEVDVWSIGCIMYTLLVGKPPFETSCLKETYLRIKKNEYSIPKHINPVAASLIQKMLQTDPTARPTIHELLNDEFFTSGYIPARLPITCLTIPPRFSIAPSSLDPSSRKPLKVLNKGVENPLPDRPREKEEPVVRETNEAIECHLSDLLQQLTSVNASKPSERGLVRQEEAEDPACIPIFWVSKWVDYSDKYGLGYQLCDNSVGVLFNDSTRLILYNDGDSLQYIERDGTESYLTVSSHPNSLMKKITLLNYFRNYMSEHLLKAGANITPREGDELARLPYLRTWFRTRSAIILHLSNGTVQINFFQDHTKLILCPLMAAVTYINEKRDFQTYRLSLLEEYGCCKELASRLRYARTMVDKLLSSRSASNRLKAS
Procedure: SDC were cultured for at least 14 days in RPMI (without arginine and lysine, custom-made by Biosera) containing 10% dialysed FCS (Hyclone) supplemented with 84 mg/l of L-arginine (Sigma) and 40 mg/l L-lysine (Sigma) for the ‘light’ medium or 84 mg/l of L-arginine ^13C6 or ^13C10 and 40 mg/l L-lysine ^13C6 (Cambridge Isotope Laboratory) for the ‘heavy’ medium. Equal numbers (2×10^7) of ‘light’ or ‘heavy’ labelled SDCs were incubated in RPMI containing 0.5% FCS for 3 h in 15 cm dishes. The cells were lysed in the lysis buffer provided in the kit (Pierce). […] Labelling with the desthiobiotin ATP probe, and precipitation with streptavidin beads were performed according to the manufacturer's instructions (Pierce kinase enrichment kit or ActivX™). Equal amount of streptavidin precipitates were separated by electrophoresis as described above and probed with antibodies against Rsk2, Lok (Bethyl), Slk (Bethyl), PLK1 (Calbiochem), p38, Erk2 and Mst1 (from Cell Signaling).

[10] = increasing concentrations of inhibitor

Structure (SMILES): Cc1ccc(-n2nc(C(C)(C)C)cc2NC(=O)Nc2ccc(OCCN3CCOCC3)c3ccccc23)cc1 [BIRB0796]
- production of TNFα, IL6 and IL10 [1]: blocked

Structure (SMILES): C[C@@H]1CCNC(=O)c2cc3ccc(C(=O)Nc4nc5ccccc5n4CCCN(C)C)cc3n21 [BIX, BIX02565]
- capture of Erk1/2 on streptavidin beads [2]: not Erk1/2 or p38, was blocked
- capture of p38 on streptavidin beads [3]: not Erk1/2 or p38, was blocked
- Block of TLR stimulated macropinocytosis [4]: ~ 20%
- IL6 secretion [1, 10]: only partially blocked
- IL10 secretion [1, 10]: only partially blocked
- TNFα production [1, 10]: partially blocked
- Higher levels of BIX at which a few other kinases were affected [5]: ~ 20 fold
- Erk1/2, p38 or JNK1/2 phosphorylation ([6]; LPS 50 ng/ml): Neither inhibitor had any effect
- GSK3α/β phosphorylation ([6]; LPS 50 ng/ml): blocked
- PKB phosphorylation at Ser473 and Thr308 ([6]; LPS 50 ng/ml): increased
- Phosphorylation of MSK1 and MK2 ([6]; LPS 50 ng/ml): not affected
- phosphorylation of IκBα ([6]; LPS 50 ng/ml): neither D1870 nor BIX affected
- phosphorylation of paxillin on Ser250 ([6]; LPS, paxillin immunoprecipitated): little effect
- morphological changes in resting DC (cell spreading, focal adhesion, loss of podosomes) [7]: not observed
- IC50 [8]: 1 to 2 nM
- Recovery of PLK1 on streptavidin beads [9]: not affected

Structure (SMILES): O=C(NOCC1CC1)c1ccc(F)c(F)c1Nc1ccc(I)cc1Cl [PD184352]
- production of TNFα, IL6 and IL10 [1]: blocked
